Laboratory results reported in PMC12040169 (PLOS Biology, 2025).

Assay: in vitro
Settings: human, hela cells, % viability

Structure (SMILES) | viability at 28.5 h, 10 µM | viability at 28.5 h, 10 µM (bulk resorufin, single well)
Cc1ccc(S(=O)(=O)N(C(=O)c2ccncc2)c2ccc(OC(=O)c3ccncc3)cc2)c(C)c1 [CBK265635] | 104% | –
CC1(C)CC(=O)c2sc(NS(=O)(=O)c3sc(Cl)cc3Br)nc2C1 [CBK200029] | 109% | –
COc1ccc(C(=O)CSc2nnc(C)[nH]2)cc1[N+](=O)[O-] [CBK264350] | 95.5% | –
CCN(CC(=O)N1CCN(c2cc(Cl)ccc2C)CC1)S(=O)(=O)c1ccc2ccccc2c1 [CBK268827] | 92.8% | –
COc1ccc(-c2nnc(SCC(=O)NN)n2-c2ccccc2)cc1OC [CBK262264] | 112% | –
Cc1cc2n(n1)C(c1ccc(C(=O)O)cc1)Nc1ccccc1-2 (stereo not drawn) [CBK287000] | 80.8% | –
Cc1cc(Br)c(NCC(=O)N/N=C/c2ccc(O)cc2)c(Br)c1 [CBK263506] | 101% | –
O=C(O)C1Cc2c([nH]c3ccccc23)C(c2cc(Br)ccc2O)N1 (stereo not drawn) [CBK260946] | 88.1% | –
c1cc(COc2cncc(N3CCCC3)n2)cs1 [CBK115669] | 102% | –
CC(C)c1ccc(C(=O)NC2CCN(CC(F)(F)F)C2=O)nc1 (stereo not drawn) [CBK304089] | 108% | –
O=C(N/N=C/c1ccncc1)C1CC1C(=O)N/N=C/c1ccncc1 (stereo not drawn) [CBK261115] | 90.2% | –
O=C(Nc1ccccc1Cl)Nc1[nH]nc(O)c1Cc1c(Cl)cccc1Cl [CBK089367] | 113% | –
N#Cc1cccc(CSc2nnc(Nc3ccccc3)n2-c2ccccc2)c1 [CBK266040] | 107% | –
Cc1ccc(S(=O)(=O)N2CCC(n3c(=O)[nH]c4ccccc43)CC2)cc1Cl [CBK149691] | 90.8% | –
Cc1csc(C(Cc2ccsc2)NC(=O)Cn2ccnc2)n1 (stereo not drawn) [CBK285113] | 106% | –
COc1ccccc1NC(=O)CC1S/C(=N\N=C2/CCCc3ccccc32)N=C1O (stereo not drawn) [CBK263748] | 102% | –
CN1CCN(c2cc(N3CCN(S(=O)(=O)c4ccc5ccccc5c4)CC3)ccc2[N+](=O)[O-])CC1 [CBK264791] | 97.6% | –
Cc1ccc(CN2CC[C@@H]3[C@H](C2)[C@@H](c2ccsc2)CN3C(=O)c2ccccc2F)cc1 [CBK285658] | 96.5% | –
CC(CC(=O)O)CC(=O)N1CCN(c2ccccn2)CC1 (stereo not drawn) [CBK286839] | 107% | –
O=C(CN1CCN(c2ccccn2)CC1)N1c2ccccc2Sc2ccc(C(F)(F)F)cc21 [CBK268835G] | 98.8% | –
COC(=O)[C@@H]1CN(C(=O)Nc2ccccc2)CCN1C(C)=O [CBK289606] | 88% | –

Structure (SMILES) | viability at 28.5 h, 10 µM | viability at 28.5 h, 10 µM (bulk resorufin, single well)
Cc1ccc(NS(=O)(=O)c2ccc(OC(F)(F)F)cc2)c(CO)c1 [CBK043267] | 86.8% | –
Nc1cc(-c2ccccc2)nn1-c1ccc(C(=O)O)cc1 [CBK286565] | 84.9% | –
O=C(O)c1cccc(NS(=O)(=O)c2ccc(Br)cc2C(F)(F)F)c1 [CBK155724] | 90.9% | –
NC(=O)c1c[nH]c2ccccc12 [CBK027556] | 80.7% | –
c1ccc(-c2nc3ccccc3nc2N2CCNCC2)cc1 [CBK269574C] | 85% | –
CCOC(=O)C1(C2CCCCC2)CCN(C(=O)CCC(=O)O)CC1 [CBK136939] | 95.9% | –
CC/C(=N\C(N)=O)c1ccccc1 [CBK009865] | 82.9% | –
CC(C)C(=O)N1CC2(CCN(CCc3cccc4ccccc34)CC2)c2ccccc21 [CBK136978] | 101% | –
COc1ccc(CN2CCN(Cc3ccc4c(c3)OCO4)CC2)c(OC)c1OC [CBK033874] | 91.4% | –
CCNC(=O)C1CCN(Cc2nc(-c3cc(OC)ccc3F)oc2C)C1 (stereo not drawn) [CBK307040] | 98.4% | –
CN(C)CC1CN(c2nc(-c3ccncc3)nc3c2CCC3)CCO1 (stereo not drawn) [CBK305824] | 83% | –
CC(NC(=O)c1ccc(-c2ccccc2F)s1)C(=O)N1CCCCC1 (stereo not drawn) [CBK305740] | 91.3% | –
Cc1ccc(-c2ncc(OCCn3ccnc3)nc2N)cc1C [CBK145148] | 102% | –
C=CCn1c(-c2sc(NC(=O)CNC(=O)C(C)(C)C)nc2C)n[nH]c1=S [CBK297907] | 91.2% | –
O=C(CSc1nc2cc(Cl)ccc2[nH]1)Nc1ccccc1F [CBK269916] | 84.8% | –
O=C(O)C1CC1C(=O)N1CCC2(CC1)OCc1cc(-c3ccco3)ccc1O2 (stereo not drawn) [CBK060825] | – | 103%
CC(=O)Nc1ccc(N2C(=O)CSC2c2ccccc2[N+](=O)[O-])cc1 (stereo not drawn) [CBK294443] | 110% | –
COc1cccc(-c2csc(N3CCN(C(=O)Nc4ccccc4)CC3)n2)c1 [CBK070275] | 95.4% | –
Nc1n[nH]c(=O)c2ncn([C@H]3C[C@@H](O)[C@@H](CO)O3)c12 [CBK201233] | 91.4% | –
CCC(CC)C(=O)N1CCC(c2nnc3n2CCCCC3)CC1 [CBK284614] | 86.6% | –
O=C(O)c1ccc2c(c1)C1C=CCC1C(c1cccc([N+](=O)[O-])c1)N2 (stereo not drawn) [CBK287008] | 94.7% | –

Structure (SMILES) | viability at 28.5 h, 10 µM | viability at 28.5 h, 10 µM (bulk resorufin, single well)
Cc1nc2sc3c(c2c2nc(CCC(=O)O)nn12)CC(C)(C)OC3 [CBK269168] | 81.4% | –
Cc1cc(NC(=O)c2ccc(Br)cc2)nc2c1c(=O)oc1ccccc12 [CBK291262] | 102% | –
COc1ccc(CCN2C(=O)CC(N3CCN(Cc4ccc5c(c4)OCO5)CC3)C2=O)cc1OC (stereo not drawn) [CBK074555] | 88% | –
CCOc1cc(C(=O)O)ccc1OCCOc1cccc(C)c1 [CBK299781] | 91.6% | –
CN(CCN(C)C(=O)c1cc2sccc2[nH]1)CC(F)F [CBK306014] | 103% | –
CCN(CC)S(=O)(=O)c1cccc(-n2sc3ccccc3c2=O)c1 [CBK116501] | 96.2% | –
Cc1cc(C)nc(N/C(=N/C(=O)Cc2ccccc2)N2CCC(C(N)=O)CC2)n1 [CBK263889] | 107% | –
NC(=O)C1(N2CCCCC2)CCN(C(=S)Nc2ccc(Oc3ccccc3)cc2)CC1 [CBK265862] | 84.7% | –
COc1cccc(C(=O)N2CCC(NC(=O)c3cc(F)ccc3F)CC2)c1 [CBK155026] | 99.4% | –
Oc1n[nH]c(CSCc2ccccc2Cl)n1 [CBK267427] | 87.6% | –
COc1nc2ccccc2nc1CCC(=O)NC(C)c1ccccc1 (stereo not drawn) [CBK270065] | 100% | –
Cc1nn(C)cc1S(=O)(=O)NCC1(c2ccccc2)CCCC1 [CBK282766] | 85.9% | –
CCn1ncc(CN[C@@H]2CCC(=O)N[C@H]2c2cc(F)cc(F)c2)c1C [CBK282914] | 98.3% | –
CCn1c(=O)c2c(cnn2C)c2ccccc21 [CBK017345] | 81.3% | –
Oc1cccc(OCCOc2nccc(C(F)(F)F)n2)c1 [CBK115903] | 92.7% | –
CC(=O)c1ccc(NC(=O)Cn2cnc3c(sc4ncccc43)c2=O)cc1 [CBK287773] | 95.4% | –
COc1ccc(NS(=O)(=O)c2c(Cl)cccc2Cl)c(C(=O)NCc2ccccc2)c1 [CBK113952] | 79.8% | –
COc1ccc(CCCC(=O)n2c(=O)n(CCc3c[nH]c4ccccc34)c3ccccc32)cc1 [CBK106514] | 91.3% | –
Nc1nc(N)c2nc(C3OCCO3)cnc2n1 [CBK027115] | 114% | –
COC(=O)CCc1ccc(S(=O)(=O)N2CCN(Cc3ccc(O)c(F)c3)CC2)cc1 [CBK062813] | 88.9% | –
CS(=O)(=O)N(CC(=O)NC1CCCCCCC1)c1ccccc1 [CBK270112] | 96.1% | –
